The values that follow come from US11666572B2, “Treatment of HER2 positive cancers” (Seagen Inc., priority 2017, dated 2023).

The conditions of data set [1]: cited from earlier work.
Data set [2] concerns Calu-3 NSCLC xenograft model. The experiment in a line: Calu-3 NSCLC xenograft model, tumor growth inhibition. It is filed as in vivo, Mice. The conditions noted are these: study day 28, tucatinib 50 mg/kg orally twice per day, trastuzumab 20 mg/kg IP once every three days, from study day 7. The procedure: (§1) The term “tumor growth inhibition (TGI) index” refers to a value used to represent the degree to which an agent (e.g., tucatinib, an anti-HER2 antibody, or a combination thereof) inhibits the growth of a tumor when compared to an untreated control. The TGI index is calculated for a particular time point (e.g., a specific number of days into an experiment or clinical trial) according to the following formula:
(§2) [formula] where “Tx Day 0” denotes the first day that treatment is administered (i.e., the first day that an experimental therapy or a control therapy (e.g., vehicle only) is administered) and “Tx Day X” denotes X number of days after Day 0.
(§3) For the Calu-3 study, tucatinib was administered orally at a dose of 50 mg/kg twice per day for 21 days, beginning on study day 7. […] A vehicle-only group was included as a negative control.

The test system of data set [3] is NCI-H2170 NSCLC xenograft model. In words: NCI-H2170 NSCLC xenograft model, tumor growth inhibition. Format: in vivo, Mice. The following applies: study day 39, tucatinib 50 mg/kg orally twice per day, trastuzumab 20 mg/kg IP twice per week, from study day 18. The procedure: as §1, §2, §3
For the NCI-H2170 study, tucatinib was administered orally at a dose of 50 mg/kg twice per day for 21 days, beginning on study day 18. […] A vehicle-only group was included as a negative control.

Another data set concerns CTG-0121 CRC PDX model. In words: CTG-0121 CRC PDX model, tumor growth inhibition. Format: in vivo, Mice. The conditions noted are these: study day 29, tucatinib 50 mg/kg orally twice per day, trastuzumab 20 mg/kg IP once every three days. The procedure:
as §1, §2
(§4) Tucatinib was administered orally at a dose of 50 mg/kg twice per day for 28 days (study days 0-27). […] A vehicle-only group was included as a negative control.

The test system of another data set is CTG-0784 CRC PDX model. The experiment in a line: CTG-0784 CRC PDX model, tumor growth inhibition. Format: in vivo, Mice. The conditions noted are these: study day 29, tucatinib 50 mg/kg orally twice per day, trastuzumab 20 mg/kg IP once every three days. The procedure:
as §1, §2, §4

The next data set has as its system CTG-0383 CRC PDX model. The experiment in a line: CTG-0383 CRC PDX model, tumor growth inhibition. The following applies: study day 29, tucatinib 50 mg/kg orally twice per day, trastuzumab 20 mg/kg IP once every three days. It is filed as in vivo, Mice. The procedure:
as §1, §2, §4

The test system of data set [4] is CTG-0137 esophageal cancer PDX model. The experiment in a line: CTG-0137 esophageal cancer PDX model, tumor growth inhibition. Format: in vivo, Mice. The following applies: study day 15, tucatinib 50 mg/kg orally twice per day, trastuzumab 20 mg/kg IP once every three days. The procedure: as §1, §2, §4
Data set [5] concerns CTG-0138 esophageal cancer PDX model. The experiment in a line: CTG-0138 esophageal cancer PDX model, tumor growth inhibition. Format: in vivo, Mice. The conditions noted are these: study day 30, tucatinib 50 mg/kg orally twice per day, trastuzumab 20 mg/kg IP once every three days. The procedure: as §1, §2, §4
Data set [6] deals with CTG-0927 HER2 positive cholangiocarcinoma PDX model. In words: CTG-0927 cholangiocarcinoma PDX model, tumor growth inhibition. Format: in vivo, Mice. The following applies: study day 28, tucatinib 50 mg/kg orally twice per day, trastuzumab 20 mg/kg IP once every three days. The procedure:
as §1, §2, §4

For data set [7], the system named is GXA 3038 gastric cancer PDX model. In words: GXA 3038 gastric cancer PDX model, tumor growth inhibition. It is filed as in vivo, Mice. The following applies: study day 28, tucatinib 50 mg/kg orally twice per day, trastuzumab 20 mg/kg IP once every three days. The procedure: as §1, §2, §4
Data set [8] deals with GXA 3039 gastric cancer PDX model. In words: GXA 3039 gastric cancer PDX model, tumor growth inhibition. Format: in vivo, Mice. The following applies: study day 29, tucatinib 50 mg/kg orally twice per day, trastuzumab 20 mg/kg IP once every three days. The procedure:
as §1, §2, §4

Data set [9] has as its system GXA 3054 gastric cancer PDX model. In words: GXA 3054 gastric cancer PDX model, tumor growth inhibition. It is filed as in vivo, Mice. The following applies: study day 17, tucatinib 50 mg/kg orally twice per day, trastuzumab 20 mg/kg IP once every three days. The procedure:
as §1, §2, §4

Data set [10] is described as follows: Clinical safety observations in patients. Format: in vivo, human. The following applies: patients on tucatinib studies. From the text:
Cardiac function is therefore monitored closely.
Monitoring of liver function tests is required for any patient taking tucatinib.
Patients with brain metastases are at risk for occurrence of AEs due to the presence of CNS lesions, progression of disease and toxicities potentially related to study treatment. On occasion, treatment of brain metastases with systemic or radiation therapy has been associated with localized edema thought to be due to treatment effect and not tumor progression. […] The patient's symptoms responded rapidly and completely to systemic corticosteroids. It was not known if this patient's symptoms were due to local progression or treatment-related toxicity. […] The patient was taken for surgical resection, and found to have no viable tumor. The resected lesion was thought to represent treatment-related necrosis.

In a further data set the test system is Calu-3 cells. In words: Response of Calu-3 cells in vitro. It is filed as cell-based. The following applies: previously demonstrated.
In the next data set the test system is NCI-H2170 cells. In words: Response of NCI-H2170 cells in vitro. It is filed as cell-based. The following applies: previously demonstrated.
For data set [11] the following is noted: attributed to anti-EGFR/HER1 activity of the drug; cited from earlier work.
The test system of data set [12] is HER2 positive metastatic CRC (wild-type KRAS exon 2). The conditions noted are these: HERACLES patients, previous treatment with cetuximab or panitumumab; cited from earlier work.
The mark [13] stands for this setting: Table 11, strong inhibitors or inducers of CYP3A4.
The mark [14] stands for this setting: Table 10, strong inhibitors and inducer of CYP2C8.

Read-outs that look alike come from different tables or passages of the source.

As to `NC(=O)N1c2ccccc2C=Cc2ccccc21` [Carbamazepine], in [1] (setting [13]), the “Elimination Half-life” value is 25 to 65 h.
As for `CC[C@H]1OC(=O)[C@H](C)[C@@H](O[C@H]2C[C@@](C)(OC)[C@@H](O)[C@H](C)O2)[C@H](C)[C@@H](O[C@@H]2O[C@H](C)C[C@H](N(C)C)[C@H]2O)[C@](C)(OC)C[C@@H](C)C(=O)[C@H](C)[C@@H](O)[C@]1(C)O` [Clarithromycin], the “Elimination Half-life” value in data set [1] (setting [13]) is 3 to 7 h.
Regarding `C#C[C@]1(O)CC[C@H]2[C@@H]3CCC4=Cc5oncc5C[C@]4(C)[C@H]3CC[C@@]21C` [Danazol], the “Elimination Half-life” value in data set [1] (setting [13]) was 24 to 26 h.
Regarding `CC[C@H]1OC(=O)[C@H](C)[C@@H](O[C@H]2C[C@@](C)(OC)[C@@H](O)[C@H](C)O2)[C@H](C)[C@@H](O[C@@H]2O[C@H](C)C[C@H](N(C)C)[C@H]2O)[C@](C)(O)C[C@@H](C)C(=O)[C@H](C)[C@@H](O)[C@]1(C)O` [Erythromycin], the “Elimination Half-life” value in data set [1] (setting [13]) is 2 h.
As for `Cc1ccc(C)c(OCCCC(C)(C)C(=O)O)c1` [Gemfibrozil], the “Elimination Half-life” value in data set [1] (setting [14]) is 1 to 2 h.
In the case of `CCC(C)n1ncn(-c2ccc(N3CCN(c4ccc(OCC5COC(Cn6cncn6)(c6ccc(Cl)cc6Cl)O5)cc4)CC3)cc2)c1=O` (stereo not drawn) [Itraconazole], the “Elimination Half-life” value in [1] (Table 11, single dose) was 21 h; in data set [1] (Table 11, steady state), 64 h.
Take `CC(C)(O)c1ccccc1CC[C@@H](SCC1(CC(=O)O)CC1)c1cccc(/C=C/c2ccc3ccc(Cl)cc3n2)c1` [Montelukast]: in data set [1] (setting [14]), the “Elimination Half-life” value was 3 to 6 h (drug insert).
Take `CCc1nn(CCCN2CCN(c3cccc(Cl)c3)CC2)c(=O)n1CCOc1ccccc1` [Nefazodone]: in [1] (setting [13]), the “Elimination Half-life” value is 2 to 4 h.
Consider `O=C1NC(=O)C(c2ccccc2)(c2ccccc2)N1` [Phenytoin], for which, in data set [1] (setting [13]), the “Elimination Half-life” value is 7 to 42 h.
Take `CCc1ccc(CCOc2ccc(CC3SC(=O)NC3=O)cc2)nc1` (stereo not drawn) [Pioglitazone]: the “Elimination Half-life” value in [1] (setting [14]) is 3 to 7 h.
Regarding `O=c1c(O)c(-c2ccc(O)c(O)c2)oc2cc(O)cc(O)c12` [Quercetin], in data set [1] (setting [14]), the “Elimination Half-life” value was less than 2 h.
Regarding `CN(CCOc1ccc(CC2SC(=O)NC2=O)cc1)c1ccccn1` (stereo not drawn) [Rosiglitazone], in data set [1] (setting [14]), the “Elimination Half-life” value was 16 to 24 h.
`CC[C@H]1OC(=O)[C@H](C)C(=O)[C@H](C)[C@@H](O[C@@H]2O[C@H](C)C[C@H](N(C)C)[C@H]2O)[C@](C)(OC)C[C@@H](C)C(=O)[C@H](C)[C@H]2N(CCCCn3cnc(-c4cccnc4)c3)C(=O)O[C@]12C` [Telithromycin]: the “Elimination Half-life” value in data set [1] (setting [13]) was 10 h.
Turning to `COc1cc(Cc2cnc(N)nc2N)cc(OC)c1OC` [Trimethoprim], the “Elimination Half-life” value in data set [1] (setting [14]) is 8 to 10 h.
For `Cc1cc(Nc2ncnc3ccc(NC4=NC(C)(C)CO4)cc23)ccc1Oc1ccn2ncnc2c1` [Tucatinib, tucatinib], the “Observed TGI (%)” value came out at 63% in data set [2]; 91% in [3]; 104% in the data set on CTG-0121 CRC PDX model; 50% in the data set with CTG-0784 CRC PDX model; 117% in the data set on CTG-0383 CRC PDX model; 49% in [4]. Further, the “Observed TGI (%)” value in data set [5] came out at 69%; in [6], 48%; in [7], 110%; in data set [8], 48%; in [9], 65%. Further, the “Elevation of liver function tests” value in data set [10] was “Grade 3 and 4 elevation of LFTs have been seen in some patients”. Moreover, the Response in vitro result in the data set on Calu-3 cells and in the data set with NCI-H2170 cells was “good responses” in each case.
Take `C[C@@H](c1ncncc1F)[C@](O)(Cn1cncn1)c1ccc(F)cc1F` [Voriconazole]: in data set [1] (setting [13]), the “Elimination Half-life (hours)” value is “Dose dependent”.
With `CC(=O)N1CCN(c2ccc(OCC3COC(Cn4ccnc4)(c4ccc(Cl)cc4Cl)O3)cc2)CC1` (stereo not drawn) [ketoconazole (systemic), ketoconazole], in data set [1] (setting [13]), the “Elimination Half-life” value was 2 to 8 h.
As to `CS(=O)(=O)CCNCc1ccc(-c2ccc3ncnc(Nc4ccc(OCc5cccc(F)c5)c(Cl)c4)c3c2)o1` [lapatinib], the Toxicities entry in data set [11] is “rash, diarrhea, and fatigue”.
panitumumab: in [12], the “ORR on previous treatment” value is 0%.
